Test results from patent publication US20240108725A1, “METHOD FOR TREATING CANCER AND SYSTEM FOR SAME” (OTSUKA MEDICAL DEVICES CO., LTD, priority 2020, published 2024).

Tested on: TL-Om1 cells
Assay: Rate of dead cells after 5-ALA PDT in erythrocyte solution, TL-Om1 cells, Example 3
Assay type: cell-based, human
Description: C6 cells or human leukemia cell line TL-Oml cells were cultured in 2.5% FBS/F-12K medium (C6 cells) or 10% FBS/RPMI1640 (TL-Oml cells) supplemented with 5-ALA to a final concentration of 0.125 to 0.5 mM in a 5% CO2 incubator at 37° C. for 4 hours. After the culture, the cells were removed with a 0.25% trypsin-EDTA solution, and the collected cells were adjusted to 2×10^7 cells/mL with an erythrocyte solution (a solution in which erythrocytes and PBS were mixed at a ratio of 45:55). The cell suspension thus prepared was injected into a Tygon tube (inner diameter: 0.79 mm), wrapped around a light irradiator, and irradiated with light having a wavelength of 630 nm so that the irradiation energy density was 0.5 to 500 J/cm^2. After the irradiation, an ammonium chloride solution was added to the cell suspension to hemolyze the erythrocytes. Cells before the PDT treatment, after the PDT treatment, and after 24-hour culture were stained with the FITC Annexin V Apoptosis Detection Kit I and the rate of dead cells was analyzed with a flow cytometer.

[1] = 5-ALA 0.125 mM, 10 J/cm^2, 24 hours after irradiation
[2] = 5-ALA 0.125 mM, 50 J/cm^2, 24 hours after irradiation
[3] = 5-ALA 0.125 mM, 100 J/cm^2, 24 hours after irradiation
[4] = 5-ALA 0.125 mM, 200 J/cm^2, 24 hours after irradiation
[5] = 5-ALA 0.125 mM, 300 J/cm^2, 24 hours after irradiation
[6] = 5-ALA 0.125 mM, 400 J/cm^2, 24 hours after irradiation
[7] = 5-ALA 0.125 mM, 500 J/cm^2, 24 hours after irradiation
[8] = 5-ALA 0.25 mM, 1 J/cm^2, 24 hours after irradiation
[9] = 5-ALA 0.25 mM, 1 J/cm^2, immediately after irradiation
[10] = 5-ALA 0.25 mM, 2.5 J/cm^2, 24 hours after irradiation
[11] = 5-ALA 0.25 mM, 2.5 J/cm^2, immediately after irradiation
[12] = 5-ALA 0.25 mM, 5 J/cm^2, 24 hours after irradiation
[13] = 5-ALA 0.25 mM, 5 J/cm^2, immediately after irradiation
[14] = 5-ALA 0.25 mM, 10 J/cm^2, 24 hours after irradiation
[15] = 5-ALA 0.25 mM, 10 J/cm^2, immediately after irradiation
[16] = 5-ALA 0.25 mM, 50 J/cm^2, 24 hours after irradiation
[17] = 5-ALA 0.25 mM, 50 J/cm^2, immediately after irradiation
[18] = 5-ALA 0.25 mM, 100 J/cm^2, 24 hours after irradiation
[19] = 5-ALA 0.25 mM, 100 J/cm^2, immediately after irradiation
[20] = 5-ALA 0.25 mM, 200 J/cm^2, 24 hours after irradiation
[21] = 5-ALA 0.25 mM, 200 J/cm^2, immediately after irradiation
[22] = 5-ALA 0.25 mM, 300 J/cm^2, 24 hours after irradiation
[23] = 5-ALA 0.25 mM, 300 J/cm^2, immediately after irradiation
[24] = 5-ALA 0.25 mM, 400 J/cm^2, 24 hours after irradiation
[25] = 5-ALA 0.25 mM, 400 J/cm^2, immediately after irradiation
[26] = 5-ALA 0.25 mM, 500 J/cm^2, 24 hours after irradiation
[27] = 5-ALA 0.25 mM, 500 J/cm^2, immediately after irradiation
[28] = 5-ALA 0.5 mM, 1 J/cm^2, immediately after irradiation
[29] = 5-ALA 0.5 mM, 2.5 J/cm^2, immediately after irradiation
[30] = 5-ALA 0.5 mM, 5 J/cm^2, immediately after irradiation
[31] = 5-ALA 0.5 mM, 10 J/cm^2, immediately after irradiation
[32] = 5-ALA 0.5 mM, 50 J/cm^2, immediately after irradiation
[33] = 5-ALA 0.5 mM, 100 J/cm^2, immediately after irradiation
[34] = 5-ALA 0.5 mM, 200 J/cm^2, immediately after irradiation
[35] = 5-ALA 0.5 mM, 300 J/cm^2, immediately after irradiation
[36] = 5-ALA 0.5 mM, 400 J/cm^2, immediately after irradiation
[37] = 5-ALA 0.5 mM, 500 J/cm^2, immediately after irradiation

## NCC(=O)CCC(=O)O [5-ALA, 5-aminolevulinic acid]
[1]
  Annexin V+/PI+ (%): 6%
  Annexin V+/PI− (%): 4%
[2]
  Annexin V+/PI+ (%): 6%
  Annexin V+/PI− (%): 4%
[3]
  Annexin V+/PI+ (%): 6%
  Annexin V+/PI− (%): 5%
[4]
  Annexin V+/PI+ (%): 7%
  Annexin V+/PI− (%): 4%
[5]
  Annexin V+/PI+ (%): 9%
  Annexin V+/PI− (%): 4%
[6]
  Annexin V+/PI+ (%): 12%
  Annexin V+/PI− (%): 8%
[7]
  Annexin V+/PI+ (%): 33%
  Annexin V+/PI− (%): 14%
[8]
  Annexin V+/PI+ (%): 4%
  Annexin V+/PI− (%): 6%
  Annexin V−/PI− (%): 90%
[9]
  Annexin V+/PI+ (%): 8%
  Annexin V+/PI− (%): 4%
  Annexin V−/PI− (%): 88%
[10]
  Annexin V+/PI+ (%): 4%
  Annexin V+/PI− (%): 7%
  Annexin V−/PI− (%): 89%
[11]
  Annexin V+/PI+ (%): 6%
  Annexin V+/PI− (%): 4%
  Annexin V−/PI− (%): 89%
[12]
  Annexin V+/PI+ (%): 4%
  Annexin V+/PI− (%): 8%
  Annexin V−/PI− (%): 88%
[13]
  Annexin V+/PI+ (%): 7%
  Annexin V+/PI− (%): 4%
  Annexin V−/PI− (%): 88%
[14]
  Annexin V+/PI+ (%): 6%
  Annexin V+/PI− (%): 8%
  Annexin V−/PI− (%): 86%
[15]
  Annexin V+/PI+ (%): 6%
  Annexin V+/PI− (%): 4%
  Annexin V−/PI− (%): 90%
[16]
  Annexin V+/PI+ (%): 9%
  Annexin V+/PI− (%): 9%
  Annexin V−/PI− (%): 83%
[17]
  Annexin V+/PI+ (%): 8%
  Annexin V+/PI− (%): 4%
  Annexin V−/PI− (%): 87%
[18]
  Annexin V+/PI+ (%): 10%
  Annexin V+/PI− (%): 8%
  Annexin V−/PI− (%): 83%
[19]
  Annexin V+/PI+ (%): 10%
  Annexin V+/PI− (%): 4%
  Annexin V−/PI− (%): 85%
[20]
  Annexin V+/PI+ (%): 11%
  Annexin V+/PI− (%): 10%
  Annexin V−/PI− (%): 79%
[21]
  Annexin V+/PI+ (%): 12%
  Annexin V+/PI− (%): 5%
  Annexin V−/PI− (%): 82%
[22]
  Annexin V+/PI+ (%): 14%
  Annexin V+/PI− (%): 11%
  Annexin V−/PI− (%): 75%
[23]
  Annexin V+/PI+ (%): 13%
  Annexin V+/PI− (%): 4%
  Annexin V−/PI− (%): 82%
[24]
  Annexin V+/PI+ (%): 34%
  Annexin V+/PI− (%): 16%
  Annexin V−/PI− (%): 50%
[25]
  Annexin V+/PI+ (%): 18%
  Annexin V+/PI− (%): 4%
  Annexin V−/PI− (%): 77%
[26]
  Annexin V+/PI+ (%): 72%
  Annexin V+/PI− (%): 21%
  Annexin V−/PI− (%): 7%
[27]
  Annexin V+/PI+ (%): 33%
  Annexin V+/PI− (%): 3%
  Annexin V−/PI− (%): 63%
[28]
  Annexin V+/PI+ (%): 7%
  Annexin V+/PI− (%): 3%
  Annexin V−/PI− (%): 89%
[29]
  Annexin V+/PI+ (%): 5%
  Annexin V+/PI− (%): 2%
  Annexin V−/PI− (%): 92%
[30]
  Annexin V+/PI+ (%): 7%
  Annexin V+/PI− (%): 3%
  Annexin V−/PI− (%): 90%
[31]
  Annexin V+/PI− (%): 3%
  Annexin V−/PI− (%): 89%
[32]
  Annexin V+/PI− (%): 3%
  Annexin V−/PI− (%): 83%
[33]
  Annexin V+/PI− (%): 3%
  Annexin V−/PI− (%): 80%
[34]
  Annexin V+/PI− (%): 3%
  Annexin V−/PI− (%): 78%
[35]
  Annexin V+/PI+ (%): 23%
  Annexin V+/PI− (%): 3%
  Annexin V−/PI− (%): 72%
[36]
  Annexin V+/PI+ (%): 32%
  Annexin V+/PI− (%): 3%
  Annexin V−/PI− (%): 61%
[37]
  Annexin V+/PI+ (%): 62%
  Annexin V+/PI− (%): 2%
  Annexin V−/PI− (%): 30%
